Measurements reported in article PMC6270209, “Synthesis, Antimycobacterial Activity and In Vitro Cytotoxicity of 5-Chloro-N-phenylpyrazine-2-carboxamides” (Molecules, 2013).
≈ marks a conversion by molar mass, not a printed value. Where two headings read alike, the source gives them in different places.

Key:
in vitro = conditions: human
M. avium CNCTC My 152/73 = experiment: In vitro antimycobacterial activity, microdilution panel method (MIC); assay type: cell-based, Mycobacterium avium; conditions: for MIC: Mycobacterium avium
[1] = tested on: M. avium ssp. avium Chester CNCTC My 80/72; experiment: as above; assay type: cell-based, Mycobacterium avium; conditions: for MIC: Mycobacterium avium
HepG2 cells = conditions: for IC50: read-out: Cytotoxicity IC50, HepG2 cells, 24 h incubation (Table 1)
[2] = tested on: M. tuberculosis H37Rv CNCTC My 331/88; experiment: In vitro antimycobacterial activity, microdilution panel method (MIC); assay type: cell-based, Mycobacterium tuberculosis; conditions: for MIC: Mycobacterium tuberculosis, H37RV
[3] = tested on: M. kansasii Hauduroy CNCTC My 235/80; experiment: as above; assay type: cell-based, Mycobacterium kansasii; conditions: for MIC: Mycobacterium kansasii; for MIC / Antimycobacterial activity MIC, M. kansasii: M. kansasii Hauduroy CNCTC My 235/80
[4] = Solubility in antimycobacterial testing medium (observation); assay type: physicochemical
[5] = RP-HPLC, C18, MeOH 70% / H2O 30%, 30 °C
[6] = SI calculated for M. tbc as IC50 (HepG2)/MIC (in μM) using the lower MIC values (Table 1)
[7] = M. tuberculosis H37Rv, retest with extended dilution scale up to 0.39 µg/mL, read-out: Antimycobacterial activity MIC, M. tbc (confirmation retest, value in parentheses)
[8] = pH 5.6, M. tuberculosis H37Rv, primary test, dilution scale 100–[…], Šula's medium pH 5.6, read-out: Antimycobacterial activity MIC, M. tbc
[9] = M. tuberculosis H37Rv, primary test, dilution scale 100–[…], Šula's medium pH 5.6
[10] = M. tuberculosis H37Rv, retest with extended dilution scale up to 0.39 µg/mL

O=C(Nc1ccccc1O)c1cnc(Cl)cn1 [Compound 2, 5-Chloro-N-(2-hydroxyphenyl)pyrazine-2-carboxamide]
IC50 (in vitro): 30 µM | MIC (M. avium CNCTC My 152/73): > 100 µg/mL | MIC [1]: > 100 µg/mL | Cytotoxicity SI (HepG2 cells; [6]): 2.39 | MIC [2, 7]: 0.78 µg/mL | MIC [2, 8]: 3.13 µg/mL

O=C(Nc1cccc(O)c1)c1cnc(Cl)cn1 [Compound 3, 5-Chloro-N-(3-hydroxyphenyl)pyrazine-2-carboxamide]
Activity against M. kansasii (in words) [3]: inactive | MIC [3]: 50 µg/mL (≈ 200 µM) | IC50 (in vitro): 32.1 µM | MIC (M. avium CNCTC My 152/73): 100 µg/mL (≈ 401 µM) | MIC [1]: > 100 µg/mL | Cytotoxicity SI (HepG2 cells; [6]): 1.28 | MIC [2, 8]: 6.25 µg/mL

COc1ccc(NC(=O)c2cnc(Cl)cn2)c(OC)c1 [Compound 5]
MIC [3]: > 50 µg/mL | MIC (M. avium CNCTC My 152/73): > 50 µg/mL | MIC [1]: > 50 µg/mL | Solubility in testing medium (in words) [4]: Insufficient solubility | Antimycobacterial activity against M. tbc H37Rv (in words) [2]: inactive | MIC [2, 8]: > 50 µg/mL

Cc1ccc(C)c(NC(=O)c2cnc(Cl)cn2)c1 [Compound 6, 5-Chloro-N-(2,5-dimethylphenyl)pyrazine-2-carboxamide]
MIC [3]: > 100 µg/mL | IC50 (in vitro): 11.7 µM | MIC (M. avium CNCTC My 152/73): > 100 µg/mL | MIC [1]: > 100 µg/mL | Cytotoxicity SI (HepG2 cells; [6]): 1.96 | MIC [2, 7]: 1.56 µg/mL | MIC [2, 8]: 1.56 µg/mL

CCc1ccc(NC(=O)c2cnc(Cl)cn2)cc1 [Compound 7, 5-Chloro-N-(4-ethylphenyl)pyrazine-2-carboxamide]
IC50 (in vitro): 7.17 µM | MIC (M. avium CNCTC My 152/73): > 100 µg/mL | MIC [1]: > 100 µg/mL | Cytotoxicity SI (HepG2 cells; [6]): 2.41 | MIC [2, 7]: 0.78 µg/mL | MIC [2, 8]: 1.56 µg/mL

CC(C)c1ccc(NC(=O)c2cnc(Cl)cn2)cc1 [Compound 8, 5-Chloro-N-(4-isopropylphenyl)pyrazine-2-carboxamide]
IC50 (in vitro): 14.4 µM | MIC (M. avium CNCTC My 152/73): > 100 µg/mL | MIC [1]: > 100 µg/mL | Cytotoxicity SI (HepG2 cells; [6]): 2.55 | MIC [2, 8]: 1.56 µg/mL

O=C(Nc1ccccc1F)c1cnc(Cl)cn1 [Compound 9]
Antimycobacterial activity MIC, M. kansasii [3]: 12.5 µg/mL | Antimycobacterial activity MIC, M. avium (M. avium CNCTC My 152/73): >100 µg/mL | Antimycobacterial activity MIC, M. avium [1]: >100 µg/mL | Lipophilicity logk [5]: 0.490 | Antimycobacterial activity MIC, M. tbc [2, 9]: 6.25 µg/mL

O=C(Nc1cccc(F)c1)c1cnc(Cl)cn1 [Compound 10, 5-Chloro-N-(3-fluorophenyl)pyrazine-2-carboxamide]
MIC [3]: 12.5 µg/mL (≈ 49.7 µM) | MIC (M. avium CNCTC My 152/73): > 100 µg/mL | MIC [1]: > 100 µg/mL | MIC [2, 8]: 6.25 µg/mL

O=C(Nc1ccc(F)cc1F)c1cnc(Cl)cn1 [Compound 11, 5-Chloro-N-(2,4-difluorophenyl)pyrazine-2-carboxamide]
MIC [3]: 6.25 µg/mL (≈ 23.2 µM) | MIC (M. avium CNCTC My 152/73): > 50 µg/mL | MIC [1]: > 50 µg/mL | MIC [2, 8]: 3.13 µg/mL

O=C(Nc1ccccc1Cl)c1cnc(Cl)cn1 [Compound 12]
Antimycobacterial activity MIC, M. avium (M. avium CNCTC My 152/73): >100 µg/mL | Antimycobacterial activity MIC, M. avium [1]: >100 µg/mL | Lipophilicity logk [5]: 0.819 | Cytotoxicity SI (HepG2 cells; [6]): 0.58 | IC50 (HepG2 cells): 6.72 µM | Antimycobacterial activity MIC, M. tbc [2, 9]: 3.13 µg/mL | Antimycobacterial activity MIC, M. tbc (confirmation retest, value in parentheses) [2, 10]: 0.78 µg/mL

O=C(Nc1cccc(Cl)c1)c1cnc(Cl)cn1 [Compound 13]
Antimycobacterial activity MIC, M. kansasii [3]: 25 µg/mL | Antimycobacterial activity MIC, M. avium (M. avium CNCTC My 152/73): 25 µg/mL | Antimycobacterial activity MIC, M. avium [1]: 25 µg/mL | Lipophilicity logk [5]: 0.587 | Antimycobacterial activity MIC, M. tbc [2, 9]: 6.25 µg/mL | Antimycobacterial activity MIC, M. tbc (confirmation retest, value in parentheses) [2, 10]: 3.13 µg/mL

O=C(Nc1ccc(Cl)c(Cl)c1)c1cnc(Cl)cn1 [Compound 14, 5-Chloro-N-(3,4-dichlorophenyl)pyrazine-2-carboxamide]
MIC [3]: > 100 µg/mL | IC50 (in vitro): 9.1 µM | MIC (M. avium CNCTC My 152/73): > 100 µg/mL | MIC [1]: > 100 µg/mL | Cytotoxicity SI (HepG2 cells; [6]): 0.88 | MIC [2, 8]: 3.13 µg/mL

O=C(Nc1cc(Cl)c(Cl)cc1Cl)c1cnc(Cl)cn1 [Compound 15, 5-Chloro-N-(2,4,5-trichlorophenyl)pyrazine-2-carboxamide]
melting point: 189.3 to 192.4 °C | MIC [3]: > 100 µg/mL | MIC (M. avium CNCTC My 152/73): > 100 µg/mL | MIC [1]: > 100 µg/mL | Solubility in testing medium (in words) [4]: low solubility | Antimycobacterial activity against M. tbc H37Rv (in words) [2]: inactive or weakly active | MIC [2, 8]: > 100 µg/mL

O=C(Nc1cccc(Br)c1)c1cnc(Cl)cn1 [Compound 16, 5-Chloro-N-(3-bromophenyl)pyrazine-2-carboxamide]
MIC [3]: 25 µg/mL (≈ 80 µM) | MIC (M. avium CNCTC My 152/73): > 100 µg/mL | MIC [1]: > 100 µg/mL | MIC [2, 8]: 25 µg/mL

O=C(Nc1ccc(Br)cc1)c1cnc(Cl)cn1 [Compound 17]
Antimycobacterial activity MIC, M. kansasii [3]: 6.25 µg/mL | Antimycobacterial activity MIC, M. avium (M. avium CNCTC My 152/73): >100 µg/mL | Antimycobacterial activity MIC, M. avium [1]: >100 µg/mL | Lipophilicity logk [5]: 0.660 | Antimycobacterial activity MIC, M. tbc [2, 9]: 3.13 µg/mL

O=C(Nc1ccc(I)cc1Cl)c1cnc(Cl)cn1 [Compound 18, 5-Chloro-N-(2-chloro-4-iodophenyl)pyrazine-2-carboxamide]
melting point: 175.6 to 177.3 °C | Activity against M. kansasii (in words) [3]: most active | MIC [3]: 1.56 µg/mL (≈ 3.96 µM) | MIC (M. avium CNCTC My 152/73): > 50 µg/mL | MIC [1]: > 50 µg/mL | Solubility in testing medium (in words) [4]: low solubility | Antimycobacterial activity against M. tbc H37Rv (in words) [2]: inactive or weakly active | MIC [2, 8]: 12.5 µg/mL

Cc1ccc(F)cc1NC(=O)c1cnc(Cl)cn1 [Compound 19, 5-Chloro-N-(5-fluoro-2-methylphenyl)pyrazine-2-carboxamide]
MIC [3]: 25 µg/mL (≈ 94.1 µM) | MIC (M. avium CNCTC My 152/73): > 100 µg/mL | MIC [1]: > 100 µg/mL | MIC [2, 7]: 6.25 µg/mL | MIC [2, 8]: 3.13 µg/mL

Cc1ccc(Cl)c(NC(=O)c2cnc(Cl)cn2)c1 [Compound 20, 5-Chloro-N-(2-chloro-5-methylphenyl)pyrazine-2-carboxamide]
MIC [3]: 25 µg/mL (≈ 88.6 µM) | IC50 (in vitro): 15.8 µM | MIC (M. avium CNCTC My 152/73): > 100 µg/mL | MIC [1]: > 100 µg/mL | Cytotoxicity SI (HepG2 cells; [6]): 2.86 | MIC [2, 8]: 1.56 µg/mL

O=C(Nc1ccc(O)c(Cl)c1)c1cnc(Cl)cn1 [Compound 22, 5-Chloro-N-(3-chloro-4-hydroxyphenyl)pyrazine-2-carboxamide]
MIC [3]: > 100 µg/mL | IC50 (in vitro): 12.9 µM | MIC (M. avium CNCTC My 152/73): 25 µg/mL (≈ 88 µM) | MIC [1]: 50 µg/mL (≈ 176 µM) | Cytotoxicity SI (HepG2 cells; [6]): 1.17 | MIC [2, 7]: 0.39 µg/mL | MIC [2, 8]: 3.13 µg/mL

O=C(Nc1cc([N+](=O)[O-])ccc1O)c1cnc(Cl)cn1 [Compound 23, 5-Chloro-N-(2-hydroxy-5-nitrophenyl)pyrazine-2-carboxamide]
IC50 (in vitro): 1.52 µM | MIC (M. avium CNCTC My 152/73): 50 µg/mL (≈ 170 µM) | MIC [1]: 50 µg/mL (≈ 170 µM) | Cytotoxicity SI (HepG2 cells; [6]): 0.29 | MIC [2, 7]: 1.56 µg/mL | MIC [2, 8]: 1.56 µg/mL

O=C(Nc1ccccc1[N+](=O)[O-])c1cnc(Cl)cn1 [Compound 24, 5-Chloro-N-(2-nitrophenyl)pyrazine-2-carboxamide]
MIC (M. avium CNCTC My 152/73): > 100 µg/mL | MIC [1]: > 100 µg/mL | MIC [2, 8]: 12.5 µg/mL

O=C(Nc1cccc([N+](=O)[O-])c1)c1cnc(Cl)cn1 [Compound 25]
Antimycobacterial activity MIC, M. avium (M. avium CNCTC My 152/73): >100 µg/mL | Antimycobacterial activity MIC, M. avium [1]: >100 µg/mL | Lipophilicity logk [5]: 0.344 | Cytotoxicity SI (HepG2 cells; [6]): 2.91 | IC50 (HepG2 cells): 32.7 µM | Antimycobacterial activity MIC, M. tbc [2, 9]: 3.13 µg/mL

N#Cc1cccc(NC(=O)c2cnc(Cl)cn2)c1 [Compound 26, 5-Chloro-N-(3-cyanophenyl)pyrazine-2-carboxamide]
Antimycobacterial activity MIC, M. kansasii [3]: ≤ 6.25 µg/mL | MIC [3]: 3.13 µg/mL (≈ 12.1 µM) | MIC (M. avium CNCTC My 152/73): > 50 µg/mL | MIC [1]: > 50 µg/mL | Antimycobacterial activity against M. tbc H37Rv (in words) [2]: low activity | MIC [2, 8]: 25 µg/mL

N#Cc1ccc(NC(=O)c2cnc(Cl)cn2)cc1 [Compound 27, 5-Chloro-N-(4-cyanophenyl)pyrazine-2-carboxamide]
MIC [3]: > 100 µg/mL | MIC (M. avium CNCTC My 152/73): > 100 µg/mL | MIC [1]: > 100 µg/mL | Antimycobacterial activity against M. tbc H37Rv (in words) [2]: inactive | MIC [2, 8]: > 100 µg/mL

O=C(Nc1cccc(C(F)(F)F)c1)c1cnc(Cl)cn1 [Compound 28, 5-Chloro-N-(3-(trifluoromethyl)phenyl)pyrazine-2-carboxamide]
MIC [3]: 12.5 µg/mL (≈ 41.4 µM) | IC50 (in vitro): 41.4 µM | MIC (M. avium CNCTC My 152/73): > 100 µg/mL | MIC [1]: > 100 µg/mL | Cytotoxicity SI (HepG2 cells; [6]): 3.99 | MIC [2, 7]: 6.25 µg/mL | MIC [2, 8]: 3.13 µg/mL

O=C(Nc1ccc(C(F)(F)F)cc1)c1cnc(Cl)cn1 [Compound 29, 5-Chloro-N-(4-(trifluoromethyl)phenyl)pyrazine-2-carboxamide]
MIC [3]: 12.5 µg/mL (≈ 41.4 µM) | IC50 (in vitro): 8.5 µM | MIC (M. avium CNCTC My 152/73): > 100 µg/mL | MIC [1]: > 100 µg/mL | Cytotoxicity SI (HepG2 cells; [6]): 1.64 | MIC [2, 7]: 3.13 µg/mL | MIC [2, 8]: 1.56 µg/mL

NC(=O)c1cnccn1 [PZA, pyrazinamide, reference compound]
MIC [3]: > 100 µg/mL | IC50 (in vitro): > 10000 µM | MIC (M. avium CNCTC My 152/73): > 100 µg/mL | MIC [1]: > 100 µg/mL | Lipophilicity logk [5]: −0.687 | Cytotoxicity SI (HepG2 cells; human): >196 | MIC [2, 8]: 6.25 to 12.5 µg/mL | MIC ([2]; read-out: M. tbc H37Rv MIC (µM), MIC converted to molar concentrations): 51 to 102 µM
